Earlier results on one substance are cited in US20050171434A1, “Chromophore probes for optical imaging” (VisEn Medical, Inc., priority 2002, published 2005).

Cy5.5: for the setting “emission wavelength”, the λem is reported as 694 nm. For the same substance, under “excitation wavelength”, the λex is reported as 675 nm.
